The source of these data is patent publication US11555032B2, “Isoxazole derivatives as FXR agonists and methods of use thereof” (Enanta Pharmaceuticals, Inc., priority 2019, dated 2023).

Some results are limits rather than exact numbers.

For the assay, the target named is T1, human FXR (NR1H4) (Homo sapiens, UniProt Q96RI1).
T1 construct: host or cells: CHO (Chinese hamster ovary) reporter cells
T1 sequence (Q96RI1 1-486): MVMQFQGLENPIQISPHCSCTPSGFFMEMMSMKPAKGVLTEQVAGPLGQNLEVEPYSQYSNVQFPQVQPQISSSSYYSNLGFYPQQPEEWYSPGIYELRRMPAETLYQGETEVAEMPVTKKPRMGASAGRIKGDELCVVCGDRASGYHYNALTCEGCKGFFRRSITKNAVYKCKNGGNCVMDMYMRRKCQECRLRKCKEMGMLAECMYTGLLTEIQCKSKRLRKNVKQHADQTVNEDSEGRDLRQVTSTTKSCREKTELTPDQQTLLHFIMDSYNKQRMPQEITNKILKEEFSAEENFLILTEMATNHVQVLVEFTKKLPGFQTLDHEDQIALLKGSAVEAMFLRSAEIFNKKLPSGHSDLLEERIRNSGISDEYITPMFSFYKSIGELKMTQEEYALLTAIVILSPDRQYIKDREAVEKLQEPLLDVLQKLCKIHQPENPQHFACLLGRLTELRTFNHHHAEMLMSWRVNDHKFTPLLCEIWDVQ
Put plainly: Human FXR (NRIH4) Assay, luciferase reporter. It is filed as cell-based. Particulars: CHO reporter cells expressing human NR1H4, luciferase, 22 hours incubation. An excerpt: Determination of a ligand mediated Gal4 promoter driven transactivation to quantify ligand binding mediated activation of FXR. FXR Reporter Assay kit purchased from Indigo Bioscience (Catalogue number: IB00601) to determine the potency and efficacy of compound developed by Enanta that can induce FXR activation. The principle application of this reporter assay system is to quantify functional activity of human FXR. The assay utilizes non-human mammalian cells, CHO (Chinese hamster ovary) cells engineered to express human NR1H4 protein (referred to as FXR). Reporter cells also incorporate the cDNA encoding beetle luciferase which catalyzes the substrates and yields photon emission. Luminescence intensity of the reaction is quantified using a plate-reading luminometer, Envision. Reporter Cells include the luciferase reporter gene functionally linked to an FXR responsive promoter. Thus, quantifying changes in luciferase expression in the treated reporter cells provides a sensitive surrogate measure of the changes in FXR activity. EC50 and efficacy (normalize to CDCA set as 100%) is determined by XLFit. The assay is according to the manufacturer's instructions. In brief, the assay was performed in white, 96 well plates using final volume of 100 ul containing cells with different doses of compounds. Retrieve Reporter Cells from −80° C. storage. Perform a rapid thaw of the frozen cells by transferring a 10 ml volume of 37° C. cell recovery medium into the tube of frozen cells. Recap the tube of Reporter Cells and immediately place it in a 37° C. water bath for 5-10 minutes. Retrieve the tube of Reporter Cell Suspension from the water bath. Sanitize the outside surface of the tube with a 70% alcohol swab, and then transfer it into the cell culture hood. Dispense 90 μl of cell suspension into each well of the 96-well Assay Plate. Transfer the plate into 37° C. incubator, allowing the cells adherent to the bottom of the well. Dilute compounds in Dilution Plate (DP), and administrate to cells at Assay Plate (AP). DMSO content of the samples was kept at 0.2%. Cells were incubated for additional 22 hours before luciferase activities were measured. Thirty minutes before intending to quantify FXR activity, remove Detection Substrate and Detection Buffer from the refrigerator and place them in a low-light area so that they may equilibrate to room temperature. Remove the plate's lid and discard all media contents by ejecting it into an appropriate waste container. Gently tap the inverted plate onto a clean absorbent paper towel to remove residual droplets. Cells will remain tightly adhered to well bottoms. Add 100 μl of luciferase detection reagent to each well of the assay plate. Allow the assay plate to rest at room temperature for at least 5 minutes following the addition of LDR. Set the instrument (Envision) to perform a single 5 second “plate shake” prior to reading the first assay well. Read time may be 0.5 second (500 mSec) per well. EC50 and Efficacy (normalize to CDCA set as 100%) is determined by XLFit.
The efficacy was normalized to CDCA set as 100%.

The term EC50 denotes the concentration at which the effect is half-maximal. Lower therefore signals greater potency. `FC(F)(F)Oc1ccccc1-c1noc(C2CC2)c1COC1CC2CCC(C1)C2Nc1nccc(-c2ccccc2)n1` (stereo not shown) [Example 8-8] displayed an EC50 of over 500 nM. The value for `O=S(=O)(NC1C2CCC1CC(OCc1c(-c3ccccc3OC(F)(F)F)noc1C1CC1)C2)c1cccc2cccnc12` (stereo not shown) [Example 9-13] was 25 to 500 nM; that for `O=C(O)c1ccc2nc(NC3C4CCC3CC(OCc3c(-c5ccccc5OC(F)(F)F)noc3C3CC3)C4)ccc2c1` (stereo not shown) [Example 3-6] was under 25 nM. The value for `COC(=O)c1ccc2cc(SC3C4CCC3CC(OCc3c(-c5ccccc5OC(F)(F)F)noc3C3CC3)C4)ccc2c1` [Example 11, methyl 6-(((1R,3r,5S,8s)-3-((5-cyclopropyl-3-(2-(trifluoromethoxy)phenyl)isoxazol-4-yl)methoxy)bicyclo[3.2.1]octan-8-yl)thio)-2-naphthoate] was 25 to 500 nM; that for `COC(=O)c1ccc2nc(SC3C4CCC3CC(NCc3c(-c5ccccc5OC(F)(F)F)noc3C3CC3)C4)[nH]c2c1` (stereo not shown) [Example 14-3] was 25 to 500 nM; that for `CC(C)Oc1cc(C(C)(C)O)cc2sc(NC3C4CCC3CC(OCc3c(-c5ccccc5OC(F)(F)F)noc3C3CC3)C4)nc12` (stereo not shown) [Example 10] was under 25 nM.

The molecule `COC(=O)c1ccc(SC2C3CCC2CC(OCc2c(-c4ccccc4OC(F)(F)F)noc2C2CC2)C3)cc1` (stereo not shown) [Example 11-12] showed an EC50 of 25 to 500 nM. The value for `O=C(O)c1cccc2nc(NC3C4CCC3CC(OCc3c(-c5ccccc5OC(F)(F)F)noc3C3CC3)C4)ncc12` (stereo not shown) [Example 3-13] was under 25 nM.

With `O=C(O)c1ccc2nc(S(=O)(=O)C3C4CCC3CC(OCc3c(-c5ccccc5OC(F)(F)F)noc3C3CC3)C4)sc2c1` (stereo not shown) [Example 11-11], the EC50 lay within 25 to 500 nM. The value for `O=C(O)c1cccc2nc(NC3C4CCC3CC(OCc3c(-c5ccccc5OC(F)(F)F)noc3C3CC3)C4)ccc12` (stereo not shown) [Example 3-4] was under 25 nM; that for `O=C(O)c1cccc(S(=O)(=O)NC2C3CCC2CC(OCc2c(-c4ccccc4OC(F)(F)F)noc2C2CC2)C3)c1` (stereo not shown) [Example 9-8] was over 500 nM. Turning to `O=C(O)c1cccc2nc(SC3C4CCC3CC(OCc3c(-c5ccccc5OC(F)(F)F)noc3C3CC3)C4)cnc12` [Example 12, 2-(((1R,3r,5S,8s)-3-((5-cyclopropyl-3-(2-(trifluoromethoxy)phenyl)isoxazol-4-yl)methoxy)bicyclo[3.2.1]octan-8-yl)thio)quinoxaline-5-carboxylic acid], the EC50 is under 25 nM. As for `CC(C)Oc1cc(C(=O)O)cc2sc(NC3[C@@H]4CC[C@H]3CC(OCc3c(-c5c(Cl)cccc5Cl)noc3C3CC3)C4)nc12` (stereo partly drawn) [Example 1, 2-(((1R,3r,5S,8s)-3-((5-cyclopropyl-3-(2,6-dichlorophenyl)isoxazol-4-yl)methoxy)bicyclo[3.2.1]octan-8-yl)amino)-4-isopropoxybenzo[d]thiazole-6-carboxylic acid], the figure is under 25 nM; as for `Fc1cc(-c2nnn[nH]2)c2ncc(NC3C4CCC3CC(OCc3c(-c5ccccc5OC(F)(F)F)noc3C3CC3)C4)nc2c1` (stereo not shown) [Example 32], under 25 nM; as for `CC(C)Oc1ccc(S(=O)(=O)NC2C3CCC2CC(OCc2c(-c4ccccc4OC(F)(F)F)noc2C2CC2)C3)c2ccccc12` (stereo not shown) [Example 9-17], 25 to 500 nM. The value for `FC(F)(F)Oc1ccccc1-c1noc(C2CC2)c1COC1CC2CCC(C1)C2Nc1cnc2c(-c3nnn[nH]3)cc(C3CC3)cc2n1` (stereo not shown) [Example 28] was under 25 nM; that for `N#Cc1cc(C2CC2)c2nc(NC3C4CCC3CC(OCc3c(-c5ccccc5OC(F)(F)F)noc3C3CC3)C4)sc2c1` (stereo not shown) [Example 38] was 25 to 500 nM; that for `O=C(O)c1ccc2nc(NC3C4CCC3CC(OCc3c(-c5ccccc5OC(F)(F)F)noc3C3CC3)C4)cnc2c1` (stereo not shown) [Example 41] was under 25 nM. The value for `O=C(O)c1cc(OC(F)(F)F)c2nc(NC3C4CCC3CC(OCc3c(-c5ccccc5OC(F)(F)F)noc3C3CC3)C4)sc2c1` (stereo not shown) [Example 37] was under 25 nM; that for `N#Cc1cc(F)cc2nc(NC3C4CCC3CC(OCc3c(-c5ccccc5OC(F)(F)F)noc3C3CC3)C4)cnc12` (stereo not shown) [Example 40] was under 25 nM. The molecule `O=C(O)c1ccc2c(S(=O)(=O)NC3C4CCC3CC(OCc3c(-c5ccccc5OC(F)(F)F)noc3C3CC3)C4)cccc2c1` [Example 9, 5-(N-((1R,3r,5S,8s)-3-((5-cyclopropyl-3-(2-(trifluoromethoxy)phenyl)isoxazol-4-yl)methoxy)bicyclo[3.2.1]octan-8-yl)sulfamoyl)-2-naphthoic acid] showed an EC50 of under 25 nM. As to `CC(C)Oc1cc(C(=O)O)cc2sc(N[C@H]3C[C@@H]4C[C@H]3C[C@@H]4OCc3c(-c4c(Cl)cccc4Cl)noc3C3CC3)nc12` [Example 4, 2-(((1S,2S,4S,5S)-5-((5-cyclopropyl-3-(2,6-dichlorophenyl)isoxazol-4-yl)methoxy)bicyclo[2.2.1]heptan-2-yl)amino)-4-isopropoxybenzo[d]thiazole-6-carboxylic acid], the EC50 was under 25 nM. In turn, `N#Cc1cccc2nc(NC3C4CCC3CC(OCc3c(-c5ccccc5OC(F)(F)F)noc3C3CC3)C4)cnc12` (stereo not shown) [Example 48] showed an EC50 of under 25 nM. The value for `CCOC(=O)c1cc(F)c2nc(S(=O)(=O)C3C4CCC3CC(OCc3c(-c5ccccc5OC(F)(F)F)noc3C3CC3)C4)sc2c1` (stereo not shown) [Example 11-18] was over 500 nM; that for `N#Cc1ccc(NC2C3CCC2CC(OCc2c(-c4ccccc4OC(F)(F)F)noc2C2CC2)C3)nc1` [Example 8-4, 6-(((1R,3r,5S,8s)-3-((5-cyclopropyl-3-(2-(trifluoromethoxy)phenyl)isoxazol-4-yl)methoxy)bicyclo[3.2.1]octan-8-yl)amino)nicotinonitrile] was 25 to 500 nM; that for `O=C(O)c1ccc2ccc(NC3C4CCC3CC(OCc3c(-c5ccccc5OC(F)(F)F)noc3C3CC3)C4)nc2c1` (stereo not shown) [Example 31] was 25 to 500 nM. The value for `O=C(O)c1cnc(NC2C3CCC2CC(OCc2c(-c4ccccc4OC(F)(F)F)noc2C2CC2)C3)c(C(F)(F)F)c1` (stereo not shown) [Example 3-5] was 25 to 500 nM; that for `O=C(O)c1cc(F)c2nc(S[C@@H]3[C@@H]4CC[C@H]3C[C@@H](NCc3c(-c5ccccc5OC(F)(F)F)noc3C3CC3)C4)sc2c1` [Example 14-2, 2-(((1R,3r,5S,8s)-3-(((5-cyclopropyl-3-(2-(trifluoromethoxy)phenyl)isoxazol-4-yl)methyl)amino)bicyclo[3.2.1]octan-8-yl)thio)-4-fluorobenzo[d]thiazole-6-carboxylic acid] was 25 to 500 nM; that for `N#Cc1cccc2ncc(NC3C4CCC3CC(OCc3c(-c5ccccc5OC(F)(F)F)noc3C3CC3)C4)nc12` (stereo not shown) [Example 47] was 25 to 500 nM.

`O=C(O)c1cc(F)cc2nc(NC3C4CCC3CC(OCc3c(-c5ccccc5OC(F)(F)F)noc3C3CC3)C4)cnc12` (stereo not shown) [Example 39] registered an EC50 of under 25 nM. The value for `O=C(O)c1ccc(S(=O)(=O)NC2C3CCC2CC(OCc2c(-c4ccccc4OC(F)(F)F)noc2C2CC2)C3)c2ccccc12` (stereo not shown) [Example 9-3] was 25 to 500 nM; that for `O=C(O)c1cc(C2CC2)c2nc(NC3C4CCC3CC(OCc3c(-c5ccccc5OC(F)(F)F)noc3C3CC3)C4)sc2c1` (stereo not shown) [Example 36] was under 25 nM; that for `O=C(O)c1ccccc1S(=O)(=O)NC1C2CCC1CC(OCc1c(-c3ccccc3OC(F)(F)F)noc1C1CC1)C2` (stereo not shown) [Example 9-9] was over 500 nM. As for `O=C(O)c1ccc(SC2C3CCC2CC(OCc2c(-c4ccccc4OC(F)(F)F)noc2C2CC2)C3)cc1` (stereo not shown) [Example 11-13], the figure is 25 to 500 nM.
